Source: patent publication US12617770B2, “IRAK inhibitor and preparation method therefor and use thereof” (WUHAN CREATERNA SCIENCE AND TECHNOLOGY CO., LTD., priority 2019, dated 2026)

Key:
[1] = biological target: T1, human IRAK4 (Homo sapiens, UniProt Q9NWZ3); assay: IRAK4 MSA (Mobility-Shift Assay) at Km concentration of ATP; type: biochemical; conditions: GST-IRAK4 1 nM, ATP 37 μM (Km); read-out: IC50 for inhibiting human IRAK4 activity
T1 construct: purchased Cama (so in the source)
T1 sequence (Q9NWZ3 1-460): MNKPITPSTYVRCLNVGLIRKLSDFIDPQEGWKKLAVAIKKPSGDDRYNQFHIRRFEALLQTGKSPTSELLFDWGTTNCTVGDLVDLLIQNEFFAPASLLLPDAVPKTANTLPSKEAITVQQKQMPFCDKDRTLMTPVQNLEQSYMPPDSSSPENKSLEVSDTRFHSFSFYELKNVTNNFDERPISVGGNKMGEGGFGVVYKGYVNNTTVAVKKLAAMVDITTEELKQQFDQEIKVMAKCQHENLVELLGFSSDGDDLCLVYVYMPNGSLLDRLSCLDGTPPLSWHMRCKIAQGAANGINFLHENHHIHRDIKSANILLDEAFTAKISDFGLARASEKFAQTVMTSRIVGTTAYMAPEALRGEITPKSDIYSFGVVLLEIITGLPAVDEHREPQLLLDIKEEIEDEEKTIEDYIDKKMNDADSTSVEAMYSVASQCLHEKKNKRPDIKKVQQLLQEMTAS
Protocol: A recombinant fusion protein of N-terminal GST (glutathione-S-transferase) and human IRAK4 was used as enzyme (GST-IRAK4, kinase IRAK4 (Cama, CAT No. 09-145)) at a final concentration of 1 nM; ATP (Sigma. CAT No. A7699-1G) was at a final concentration of 37 μM; • the substrates used for the kinase reaction were 5-FAM (5-carboxyfluorescein)-labeled polypeptide (5-FAM-[…]-COOH) and substrate peptide FAM-P8 (GL Biochem, CAT No. 112396) at final concentrations of 5 μM.
In this assay, 500 μM stock solutions of the compounds were prepared in 100% DMSO, and serially 4-fold diluted to the 10th concentration gradient with 100% DMSO, followed by a 10-fold dilution in the compound buffer (50 mM HEPES, pH 7.5, 0.00015% Brij-35) to give intermediate dilutions of the compounds at a final concentration of 10 μM−0.04 nM containing 10% DMSO. 5 μL of the intermediate dilution was transferred into a black 384-well plate.
IRAK4 was diluted to 2.5 nM in the kinase buffer (50 mM HEPES, pH 7.5, 0.00015% Brij-35, 2 mM DTT). 10 μL of the IRAK4 dilution was transferred to the 384-well plate and co-incubated with the compound for 10-15 min.
The substrate and ATP were diluted to 12.5 μM and 92.5 μM with reaction buffer (50 mM HEPES, pH 7.5, 0.00015% Brij-35, 10 mM MgCl2), respectively. 10 μL of the dilution was transferred to a 384-well plate and incubated at 28° C. for 1 h. The reaction was terminated by adding 25 μL of 50 mM EDTA to the 384-well plate.
The inhibition rate of IRAK4 by the compounds was calculated by measuring the rate of phosphorylated substrate using a Caliper EZ Reader (PerkinElmer) and the IC50 was calculated by XL-fit software. […] In particular, some exemplary compound activity values are as follows: […]

[2] = biological target: T2, CYP1A2 (Homo sapiens, UniProt P05177); assay: CYP450 inhibition in human liver microsomes, CYP1A2; type: in vitro ADME; conditions: pooled (mixed) human liver microsomes, probe phenacetin
T2 construct: co-incubated at 7 concentrations with human liver microsomes and five probe substrates; tissue Corning (USA); host or cells: mixed (pooled) human liver microsomes
T2 sequence (P05177 1-516): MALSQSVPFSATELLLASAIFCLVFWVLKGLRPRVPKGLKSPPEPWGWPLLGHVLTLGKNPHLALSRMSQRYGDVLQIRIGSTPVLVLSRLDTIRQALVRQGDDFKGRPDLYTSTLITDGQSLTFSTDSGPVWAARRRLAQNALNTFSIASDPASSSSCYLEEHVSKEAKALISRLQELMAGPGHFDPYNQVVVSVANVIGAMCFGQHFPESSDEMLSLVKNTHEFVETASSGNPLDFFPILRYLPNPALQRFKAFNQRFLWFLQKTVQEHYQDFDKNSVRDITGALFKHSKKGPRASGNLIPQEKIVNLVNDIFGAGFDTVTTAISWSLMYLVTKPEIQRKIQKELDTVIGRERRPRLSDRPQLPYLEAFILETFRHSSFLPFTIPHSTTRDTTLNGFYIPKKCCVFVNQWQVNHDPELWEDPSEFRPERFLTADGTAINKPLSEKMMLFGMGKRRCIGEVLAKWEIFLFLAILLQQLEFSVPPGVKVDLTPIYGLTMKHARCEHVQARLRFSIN
Protocol: (§1) This study was intended to investigate the inhibitory effect of the test compounds on 5 major enzymes in human P450 superfamily, CYP1A2, 2C9, 2C19, 2D6 and 3A4-M. The mixed human liver microsomes used in this assay were purchased from Corning (USA). The test compound (compound 14) was co-incubated at 7 concentrations with human liver microsomes and five probe substrates (phenacetin for CYP1a2, diclofenac for CYP2C9, mephenytoin for CYP2C19, dextromethorphan for CYP2D6, midazolam for CYP3A4-M, mixed). The reaction was initiated by adding coenzyme NADPH, and terminated by adding acetonitrile containing internal standard. After the proteins were precipitated, the supernatant was centrifuged. The characteristic metabolites in the supernatant (acetaminophen for CYP1A2, 4-hydroxydiclofenac for CYP2C9, 4-hydroxymephenytoin for CYP2C19, dextrorphan for CYP2D6, 1-hydroxymidazolam for CYP3A4-M) were analyzed by LC-MS/MS. The influence of the test compounds on production of the characteristic metabolites was finally analyzed on the basis of the data obtained. A selective inhibitor (ketoconazole for CYP3A4-M) may be used as positive control. All samples were tested in duplicate.

[3] = biological target: T3, CYP2C9 (Homo sapiens, UniProt P11712); assay: CYP450 inhibition in human liver microsomes, CYP2C9; type: in vitro ADME; conditions: pooled (mixed) human liver microsomes, probe diclofenac
T3 construct: co-incubated at 7 concentrations with human liver microsomes and five probe substrates; tissue Corning (USA); host or cells: mixed (pooled) human liver microsomes
T3 sequence (P11712 whole entry): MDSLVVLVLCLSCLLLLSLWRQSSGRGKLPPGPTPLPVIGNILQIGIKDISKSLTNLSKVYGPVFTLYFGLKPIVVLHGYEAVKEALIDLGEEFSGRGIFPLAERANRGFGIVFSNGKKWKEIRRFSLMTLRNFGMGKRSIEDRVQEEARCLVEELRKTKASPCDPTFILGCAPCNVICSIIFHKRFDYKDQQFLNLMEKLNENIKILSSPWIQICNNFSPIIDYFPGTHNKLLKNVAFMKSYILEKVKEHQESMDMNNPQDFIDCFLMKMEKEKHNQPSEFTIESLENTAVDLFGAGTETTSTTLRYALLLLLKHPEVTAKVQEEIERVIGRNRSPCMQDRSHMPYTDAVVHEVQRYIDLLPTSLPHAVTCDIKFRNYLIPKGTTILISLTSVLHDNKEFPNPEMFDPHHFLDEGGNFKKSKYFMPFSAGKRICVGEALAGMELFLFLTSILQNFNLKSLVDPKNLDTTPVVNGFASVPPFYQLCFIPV
Protocol: as §1

[4] = biological target: T4, CYP3A4 (Homo sapiens, UniProt P08684); assay: CYP450 inhibition in human liver microsomes, CYP3A4-M; type: in vitro ADME; conditions: pooled (mixed) human liver microsomes, probe midazolam; human liver microsomes, midazolam; read-out: CYP3A4 IC50
T4 construct: The test compounds were co-incubated with the human liver microsomes and a probe substrate midazolam (CYP3A4); tissue Corning (USA); host or cells: mixed (pooled) human liver microsomes
T4 sequence (P08684 whole entry): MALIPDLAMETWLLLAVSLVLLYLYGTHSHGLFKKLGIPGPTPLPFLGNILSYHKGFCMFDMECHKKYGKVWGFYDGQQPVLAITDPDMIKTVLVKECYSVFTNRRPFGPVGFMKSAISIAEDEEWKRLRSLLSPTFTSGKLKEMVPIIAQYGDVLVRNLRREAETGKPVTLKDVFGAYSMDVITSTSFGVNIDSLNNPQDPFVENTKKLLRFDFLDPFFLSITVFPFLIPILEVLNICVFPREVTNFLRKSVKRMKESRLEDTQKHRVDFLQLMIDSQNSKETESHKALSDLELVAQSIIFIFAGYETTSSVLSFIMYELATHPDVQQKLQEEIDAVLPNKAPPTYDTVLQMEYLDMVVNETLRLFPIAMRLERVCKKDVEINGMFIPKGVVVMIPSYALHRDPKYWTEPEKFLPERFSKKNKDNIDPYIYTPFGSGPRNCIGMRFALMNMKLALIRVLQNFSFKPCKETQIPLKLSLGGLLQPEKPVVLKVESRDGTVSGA
Protocol: as §1

Row | SMILES | IC50 [1] | IC50 [2] | IC50 [3] | IC50 [4]
1 | COc1cc2nn(CCC(C)(C)O)cc2cc1NC(=O)c1cccc(C)[n+]1[O-] [Compound 163, 2-((2-(3-hydroxy-3-methylbutyl)-6-methoxy-2H-indazol-5-yl)carbamoyl)-6-methylpyridine 1-oxide] | 0.023 µM | > 30 µM | > 30 µM | > 30 µM
2 | COc1cc2nn([C@H]3CC[C@](C)(O)CC3)cc2cc1NC(=O)c1cccc(C)[n+]1[O-] [Compound 001, 2-((2-((1r,4r)-4-hydroxy-4-methylcyclohexyl)-6-methoxy-2H-indazol-5-yl)carbamoyl)-6-methylpyridine 1-oxide] | 0.006 µM | > 30 µM | > 30 µM | > 30 µM
